Read-outs that look alike come from different tables or passages of the source.
Columns and labels:
[1] = target: T1, full length human wildtype Btk (Homo sapiens, UniProt Q06187); assay: Biochemical Btk Kinase Assay (Example 901); conditions: read-out: BTK LC3K (Ki)
T1 construct: V5 (C); 6xHis (C); made in house; host or cells: Sf9 cells (baculovirus, pFastBac)
Experimental: Formula I compounds were tested by a standard biochemical Btk, Kinase Assay (Example 901). A generalized procedure for a standard biochemical Btk, Kinase Assay that can be used to test Formula I compounds is as follows. A master mix minus Btk enzyme is prepared containing 1× Cell Signaling kinase buffer (25 mM Tris-HCl, pH 7.5, 5 mM beta-glycerophosphate, 2 mM dithiothreitol, 0.1 mM Na3VO4, 10 mM MgCl2), 0.5 μM Promega PTK Biotinylated peptide substrate 2, and 0.01% BSA. A master mix plus Btk enzyme is prepared containing 1× Cell Signaling kinase buffer, 0.5 μM (micromolar) PTK Biotinylated peptide substrate 2, 0.01% BSA, and 100 ng/well (0.06 mU/well) Btk enzyme. Btk enzyme is prepared as follows: full length human wildtype Btk (accession number NM-000061) with a C-terminal V5 and 6×His tag was subcloned into pFastBac® vector (Invitrogen/Life Technologies) for making baculovirus carrying this epitope-tagged Btk. Generation of baculovirus is done based on Invitrogen's instructions detailed in its published protocol “Bac-to-Bac Baculovirus Expression Systems” (Invitrogen/Life Technologies, Cat. Nos. 10359-016 and 10608-016). Passage 3 virus is used to infect Sf9 cells to overexpress the recombinant Btk protein. The Btk protein is then purified to homogeneity using Ni-NTA column. The purity of the final protein preparation is greater than 95% based on the sensitive Sypro-Ruby staining. A solution of 200 μM ATP is prepared in water and adjusted to pH 7.4 with 1N NaOH. A quantity of 1.25 μL (microliter) of compounds in 5% DMSO is transferred to a 96-well 2 area Costar polystyrene plate. Compounds are tested singly and with an 11-point dose-responsive curve (starting concentration is 10 μM; 1:2 dilution). A quantity of 18.75 μL of master mix minus enzyme (as a negative control) and master mix plus enzyme is transferred to appropriate wells in 96-well 2 area costar polystyrene plate. 5 μL of 200 μM ATP is added to that mixture in the 96-well 2 area Costar polystyrene plate for final ATP concentration of 40 μM. The reaction is allowed to incubate for 1 hour at room temperature. The reaction is stopped with Perkin Elmer 1× detection buffer containing 30 mM EDTA, 20 nM SA-APC, and 1 nM PT66 Ab. The plate is read using time-resolved fluorescence with a Perkin Elmer Envision using excitation filter 330 nm, emission filter 665 nm, and 2nd emission filter 615 nm. IC50 values are subsequently calculated. Alternatively, the Lanthascreen assay can be used to evaluate Btk activity through quantification of its phosphorylated peptide product. The FRET (Fluorescence Resonance Energy Transfer) that occurs between the fluorescein on the peptide product and the terbium on the detection antibody decreases with the addition of inhibitors of Btk that reduce the phosphorylation of the peptide. In a final reaction volume of 25 μL (microliters), Btk (h) (0.1 ng/25 μl reaction) is incubated with 50 mM Hepes pH 7.5, 10 mM MgCl2, 2 mM MnCl2, 2 mM DTT, 0.2 mM NaVO4, 0.01% BSA, and 0.4 uM fluorescein poly-GAT. The reaction is initiated by the addition of ATP to 25 μM (micromolar) the Km of ATP. After incubation for 60 minutes at room temperature, the reaction is stopped by the addition of a final concentration of 2 nM Tb-PY20 detection antibody in 60 mM EDTA for 30 minutes at room temperature. Detection is determined on a Perkin Elmer Envision with 340 nm excitation and emission at 495 nm and 520 nm. Exemplary Btk inhibition […] values are in Table 1.

[2] = tested on: CD69 production by B lymphocytes in human whole blood activated with goat F(ab')2 anti-human IgM; assay: CD69 Whole Blood Assay (Example 907); type: cell-based; conditions: Lymphocyte, read-out: CD69 Hu Blood FACS (IC70)
Excerpt: A CD69 Whole Blood Assay can be conducted on Formula I compounds to determine the ability of compounds to inhibit the production of CD69 by B lymphocytes in human whole blood activated by crosslinking surface IgM with goat F(ab′)2 anti-human IgM (Example 907). CD69 is a type II C-type lectin involved in lymphocyte migration and cytokine secretion. CD69 expression represents one of the earliest available indicators of leukocyte activation and its rapid induction occurs through transcriptional activation (Vazquez et al (2009) Jour. of Immunology Published Oct. 19, 2009, doi: 10.4049/jimmunol.0900839). Concentration-dependent inhibition of antigen receptor stimulation by selective Btk inhibitors induces cell surface expression of the lymphocyte activation marker CD69 (Honigberg et al (2010) Proc. Natl. Acad. Sci. 107(29):13075-13080). Thus, CD69 inhibition by selective Btk inhibitors may be correlated with therapeutic efficacy of certain B-cell disorders.
Human blood is obtained from healthy volunteers, with the following restrictions: 1 week drug-free, non-smokers. Blood (approximately 20 mls to test 8 compounds) is collected by venipuncture into Vacutainer® (Becton, Dickinson and Co.) tubes with sodium heparin.
Solutions of Formula I compounds at 10 mM in DMSO are diluted 1:10 in 100% DMSO, then are diluted by three-fold serial dilutions in 100% DMSO for a ten point dose-response curve. The compounds are further diluted 1:10 in PBS and then an aliquot of 5.5 μl of each compound is added in duplicate to a 2 ml 96-well plate; 5.5 μl of 10% DMSO in PBS is added as control and no-stimulus wells. Human whole blood—HWB (100 μl) is added to each well. After mixing the plates are incubated at 37° C., 5% CO2, 100% humidity for 30 minutes. Goat F(ab′)2 anti-human IgM (10 μl of a 500 μg/ml solution, 50 μg/ml final) is added to each well (except the no-stimulus wells) with mixing and the plates are incubated for an additional 20 hours. At the end of the 20 hour incubation, samples are incubated with fluorescent labeled antibodies for 30 minutes, at 37° C., 5% CO2, 100% humidity. Include induced control, unstained and single stains for compensation adjustments and initial voltage settings. Samples are then lysed with PharM Lyse™ (BD Biosciences Pharmingen) according to the manufacturer's instructions. Samples are then transferred to a 96 well plate suitable to be run on the BD Biosciences HTS 96 well system on the LSRII machine. Data acquired and Mean Fluorescence Intensity values were obtained using BD Biosciences DIVA Software. Results are initially analyzed by FACS analysis software (Flow Jo).

[3] = human whole blood, anti-IgM stimulated, 20 hour incubation, CD20 positive cells, FACS

T1 sequence (Q06187 whole entry): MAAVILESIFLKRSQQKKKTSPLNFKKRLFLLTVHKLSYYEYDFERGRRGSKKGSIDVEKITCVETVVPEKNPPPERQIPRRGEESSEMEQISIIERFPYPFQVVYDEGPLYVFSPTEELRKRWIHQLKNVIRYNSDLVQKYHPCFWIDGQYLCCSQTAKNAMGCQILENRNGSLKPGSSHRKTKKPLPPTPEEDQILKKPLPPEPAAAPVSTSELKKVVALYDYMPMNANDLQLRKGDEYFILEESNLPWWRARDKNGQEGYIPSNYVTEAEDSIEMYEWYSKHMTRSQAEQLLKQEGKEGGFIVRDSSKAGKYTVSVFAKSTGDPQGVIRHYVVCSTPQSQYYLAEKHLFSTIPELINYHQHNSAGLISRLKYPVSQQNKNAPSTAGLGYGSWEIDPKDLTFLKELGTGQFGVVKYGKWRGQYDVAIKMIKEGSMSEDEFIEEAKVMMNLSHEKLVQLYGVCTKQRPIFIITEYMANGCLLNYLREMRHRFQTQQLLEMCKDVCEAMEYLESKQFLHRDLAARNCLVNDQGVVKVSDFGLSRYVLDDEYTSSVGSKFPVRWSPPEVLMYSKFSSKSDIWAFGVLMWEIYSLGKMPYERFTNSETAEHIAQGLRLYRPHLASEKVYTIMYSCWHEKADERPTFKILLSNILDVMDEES

Ki [1] [µM] | SMILES | IC70 [2, 3] [µM] | IC70 ([2]; Homo sapiens, 20 h) [µM]
0.0024 | CC1(C)Cc2cc3n(c2C1)CCN(c1nccc(-n2cc(C(N)=O)c(Nc4ccccc4)n2)c1CO)C3=O [Example 101, 3-anilino-1-[2-(7,7-dimethyl-4-oxo-1,2,6,8-tetrahydrocyclopenta[3,4]pyrrolo[3,5-b]pyrazin-3-yl)-3-(hydroxymethyl)-4-pyridyl]pyrazole-4-carboxamide] | 0.0369 | 
0.00101 | CC1(C)Cc2cc3n(c2C1)CCN(c1cccc(-n2cc(C(N)=O)c(Nc4ccccn4)n2)c1CO)C3=O [Example 102, 1-[3-(7,7-dimethyl-4-oxo-1,2,6,8-tetrahydrocyclopenta[3,4]pyrrolo[3,5-b]pyrazin-3-yl)-2-(hydroxymethyl)phenyl]-3-(2-pyridylamino)pyrazole-4-carboxamide] | 0.166 | 
0.000565 | CC1(C)Cc2cc3n(c2C1)CCN(c1nccc(-n2cc(C(N)=O)c(Nc4ccccn4)n2)c1CO)C3=O [Example 103, 1-[2-(7,7-dimethyl-4-oxo-1,2,6,8-tetrahydrocyclopenta[3,4]pyrrole[3,5-b]pyrazin-3-yl)-3-(hydroxymethyl)-4-pyridyl]-3-(2-pyridylamino)pyrazole-4-carboxamide] | 0.127 | 
0.000249 | CC1(C)Cc2cc3n(c2C1)CCN(c1cccc(-n2cc(C(N)=O)c(Nc4ccncn4)n2)c1CO)C3=O [Example 104, 1-[3-(7,7-dimethyl-4-oxo-1,2,6,8-tetrahydrocyclopenta[3,4]pyrrole[3,5-b]pyrazin-3-yl)-2-(hydroxymethyl)phenyl]-3-(pyrimidin-4-ylamino)pyrazole-4-carboxamide] | 0.0362 | 
0.000326 | Cn1cc(Nc2nn(-c3cccc(N4CCn5c(cc6c5CC(C)(C)C6)C4=O)c3CO)cc2C(N)=O)nn1 [Example 105, 1-[3-(7,7-dimethyl-4-oxo-1,2,6,8-tetrahydrocyclopenta[3,4]pyrrole[3,5-b]pyrazin-3-yl)-2-(hydroxymethyl)phenyl]-3-[(1-methyltriazol-4-yl)amino]pyrazole-4-carboxamide] | 0.0323 | 
0.000615 | CC1(C)Cc2cc3n(c2C1)CCN(c1nccc(-n2cc(C(N)=O)c(NC(=O)C4CC4)n2)c1CO)C3=O [Example 107, 3-(cyclopropanecarbonylamino)-1-[2-(7,7-dimethyl-4-oxo-1,2,6,8-tetrahydrocyclopenta[3,4]pyrrolo[3,5-b]pyrazin-3-yl)-3-(hydroxymethyl)-4-pyridyl]pyrazole-4-carboxamide] | 0.0521 | 
0.00183 | CC1(C)Cc2cc3n(c2C1)CCN(c1nccc(-n2nc(C(N)=O)c4ccccc42)c1CO)C3=O [Example 108, 1-[2-(7,7-dimethyl-4-oxo-1,2,6,8-tetrahydrocyclopenta[3,4]pyrrolo[3,5-b]pyrazin-3-yl)-3-(hydroxymethyl)-4-pyridyl]indazole-3-carboxamide] | 0.726 | 
0.000924 | CC1(C)Cc2cc3n(c2C1)CCN(c1nccc(-n2cc(NC(=O)C4CC4)c(C(N)=O)n2)c1CO)C3=O [Example 109, 4-(cyclopropanecarbonylamino)-1-[2-(7,7-dimethyl-4-oxo-1,2,6,8-tetrahydrocyclopenta[3,4]pyrrolo[3,5-b]pyrazin-3-yl)-3-(hydroxymethyl)-4-pyridyl]pyrazole-3-carboxamide] | 0.0474 | 
0.00332 | CC1(C)Cc2cc3n(c2C1)CCN(c1nccc(-n2nc(C(N)=O)c4cccnc42)c1CO)C3=O [Example 110, 1-[2-(7,7-dimethyl-4-oxo-1,2,6,8-tetrahydrocyclopenta[3,4]pyrrolo[3,5-b]pyrazin-3-yl)-3-(hydroxymethyl)-4-pyridyl]pyrazolo[3,4-b]pyridine-3-carboxamide] | 5.3 | 
0.000131 | Cn1cc(Nc2nn(-c3ccnc(-n4ncc5cc(C(C)(C)C)cc(F)c5c4=O)c3CO)cc2C(N)=O)nn1 [Example 111, 1-[2-(6-tert-butyl-8-fluoro-1-oxo-phthalazin-2-yl)-3-(hydroxymethyl)-4-pyridyl]-3-[(1-methyltriazol-4-yl)amino]pyrazole-4-carboxamide] | 0.0773 | 
0.000436 | CC1(C)Cc2cc3n(c2C1)CCN(c1nccc(-n2cc(C(N)=O)c(NC(=O)[C@@H]4C[C@@H]4F)n2)c1CO)C3=O [Example 112, 1-[2-(7,7-dimethyl-4-oxo-1,2,6,8-tetrahydrocyclopenta[3,4]pyrrolo[3,5-b]pyrazin-3-yl)-3-(hydroxymethyl)-4-pyridyl]-3-[(2-fluorocyclopropanecarbonyl)amino]pyrazole-4-carboxamide] | 0.1 | 
0.000997 | Cn1cc(-c2nn(-c3ccnc(-n4ncc5cc(C(C)(C)C)cc(F)c5c4=O)c3CO)cc2C(N)=O)cn1 [Example 115, 1-[2-(6-tert-butyl-8-fluoro-1-oxo-phthalazin-2-yl)-3-(hydroxymethyl)-4-pyridyl]-3-(1-methylpyrazol-4-yl)pyrazole-4-carboxamide] | 0.268 | 
0.000403 | CC(C)(C)c1cc(F)c2c(=O)n(-c3nccc(-n4cc(C(N)=O)c(Nc5ccc(Cl)cn5)n4)c3CO)ncc2c1 [Example 116, 1-[2-(6-tert-butyl-8-fluoro-1-oxo-phthalazin-2-yl)-3-(hydroxymethyl)-4-pyridyl]-3-[(5-chloro-2-pyridyl)amino]pyrazole-4-carboxamide] | 0.311 | 

SMILES | Ki [1] [µM] | IC70 [2, 3] [µM] | IC70 ([2]; Homo sapiens, 20 h) [µM]
CC(C)(C)c1cc(F)c2c(=O)n(-c3nccc(-n4cc(C(N)=O)c(Nc5ccccn5)n4)c3CO)ncc2c1 [Example 106, 1-[2-(6-tert-butyl-8-fluoro-1-oxo-phthalazin-2-yl)-3-(hydroxymethyl)-4-pyridyl]-3-(2-pyridylamino)pyrazole-4-carboxamide] | 0.00034 |  | 0.132

Reference: patent publication US20190194209A1, “PYRAZOLE CARBOXAMIDE COMPOUNDS AND METHODS OF USE” (Genentech, Inc., priority 2014, published 2019)
